Key:
skin of nude mice = assay: Penetration of Cu-DTPA complexes into skin of nude mice; format: in vivo, mouse; conditions: 1 μM to 1 mM, abdominal region, 15, 30, 45 minutes
Source text: As controls, an equimolar amount of the Cu-DTPA complex was spotted onto the abdominal region.

[1] = system: IL-2 secretion by Jurkat cells; assay: Inhibition of IL-2 secretion, PMA/ionomycin stimulated; format: cell-based, human
Procedure: T cells subsequently were stimulated to produce IL-2 by addition of 10 ng/ml PMA (Sigma, St. Louis, Mo.) and 1 μM ionomycin (CalBiochem, San Diego, Calif.). Cultures were incubated overnight at 37° C. and supernatants were collected and IL-2 was measured using a fluorescent ELISA. Briefly, plates were coated with 4 μg/ml anti-human IL-2 antibody (BD Pharmingen, San Diego, Calif.), blocked with PBS containing 10% FBS for 1 hour at room temperature, washed, and supernatants added and incubated for 1 hour. Media was removed and biotinylated anti-human IL-2 (1.6 μg/ml), was added for one hour. The plates were washed, and then europium labeled streptavidin (0.04 ng/ml) was added for one hour. After another wash, enhancement solution was added and the resulting fluorescence was measured using a Wallac plate reader (Wallac, Turku, Finland).
See R. Wiskocil, et al., J Immunol 134, 1599-603 (1985).

[2] = Half-life / release of conjugate in buffer; format: physicochemical
[3] = system: ear inflammation in Balb/c mice; assay: Murine contact dermatitis (DNFB), ear inflammation; format: in vivo, mouse
Procedure: Balb/c (6-7 weeks) mice were painted on the abdomen with 100 μl of 0.7% DNFB in acetone olive oil (95:5). Three days later both ears of the animals were restimulated with 0.5% DNFB in acetone. […] Ear inflammation was measured 24 hours after restimulation using a spring loaded caliper. The percent reduction of inflammation was calculated using the following formula […], where t=thickness of the treated ear, n=the thickness of a normal untreated ear, and u=thickness of an inflamed ear without any treatment. N=20 animals in each group.

[4] = cited from earlier work
[5] = system: CD3+ T cells in inflamed skin; conditions: mouse, in vivo
[6] = system: human skin grafts on SCID mice; conditions: in vivo
Procedure: Samples (100 μl) were applied as a liquid within excipient and prevented from dispersing by a Vaseline™ barrier and allowed to penetrate for fifteen minutes. At the end of this period animal was sacrificed, the relevant section of skin was excised, embedded in mounting medium (OCT) and frozen. […] Slides were analyzed by fluorescent microscopy.

For “Copper-diethylenetriaminepentaacetic Acid Complex [Cu-DTPA]”, the “colour on skin after wiping off” value (skin of nude mice) was “not where the Cu-DTPA alone was spotted”.

In the case of `C/C=C/C[C@@H](C)[C@@H](OC(=O)CN(Cc1ccccc1)C(=O)CNCC(=O)N[C@@H](CCCNC(=N)N)C(=O)N[C@@H](CCCNC(=N)N)C(=O)N[C@@H](CCCNC(=N)N)C(=O)N[C@@H](CCCNC(=N)N)C(=O)N[C@@H](CCCNC(=N)N)C(=O)N[C@@H](CCCNC(=N)N)C(=O)N[C@@H](CCCNC(=N)N)C(N)=O)[C@H]1C(=O)N[C@@H](CC)C(=O)N(C)CC(=O)N(C)[C@@H](CC(C)C)C(=O)N[C@@H](C(C)C)C(=O)N(C)[C@@H](CC(C)C)C(=O)N[C@@H](C)C(=O)N[C@H](C)C(=O)N(C)[C@@H](CC(C)C)C(=O)N(C)[C@@H](CC(C)C)C(=O)N(C)[C@@H](C(C)C)C(=O)N1C` [releasable R7 CsA], the “inhibition of IL-2 secretion” value ([1]; added 12 hours prior to PMA/ionomycin) is reported as “dose dependent inhibition was observed”, the “EC50 relative to CsA dissolved in alcohol” value ([1]; added at the same time) is reported as “approximately two” and the pH dependent stability ([2]; absence of serum) is reported as “stable at acidic pH, but labile at physiological pH in the absence of serum”. For the same molecule, the half-life ([2]; buffer, PBS pH 7.4 (37° C. where stated), read-out: half-life) was 1.5 h, the “reduction in ear inflammation” value ([3]; 0.01% topical) was 40.9%±3.3 and the “reduction in ear inflammation” value ([3]; 0.1% topical) was 64.8%±4.0. For the same molecule, the “reduction in inflammation in the untreated ear” value ([3]; 1%) was “No reduction in inflammation was seen in the untreated ear” and the “reduction in ear inflammation” value ([3]; 1% topical, 1, 5 and 20 h after restimulation, measured 24 hours) was 73.9%±4.0.

For `CC(=O)O[C@@]12CO[C@@H]1C[C@H](O)[C@@]1(C)C(=O)[C@H](O)C3=C(C)[C@@H](OC(=O)[C@H](O)[C@@H](NC(=O)OC(C)(C)C)c4ccccc4)C[C@@](O)([C@@H](OC(=O)c4ccccc4)[C@H]21)C3(C)C` [taxotere], the water solubility [4] is given as 6 to 7 µg/mL.

For `C/C=C/C[C@@H](C)[C@@H](OC(=O)CSC[C@H](NC(=O)[C@@H](CCCNC(=N)N)NC(=O)[C@@H](CCCNC(=N)N)NC(=O)[C@@H](CCCNC(=N)N)NC(=O)[C@@H](CCCNC(=N)N)NC(=O)[C@@H](CCCNC(=N)N)NC(=O)[C@@H](CCCNC(=N)N)NC(=O)[C@@H](CCCNC(=N)N)NC(=O)CCCCCNC(=O)CCCC[C@@H]1SC[C@@H]2NC(=O)N[C@@H]21)C(N)=O)[C@H]1C(=O)N[C@@H](CC)C(=O)N(C)CC(=O)N(C)[C@@H](CC(C)C)C(=O)N[C@@H](C(C)C)C(=O)N(C)[C@@H](CC(C)C)C(=O)N[C@@H](C)C(=O)N[C@H](C)C(=O)N(C)[C@@H](CC(C)C)C(=O)N(C)[C@@H](CC(C)C)C(=O)N(C)[C@@H](C(C)C)C(=O)N1C` [biotin r7 CsA, B-aca-r7-Cys-O-acyl-Cyclosporin A], the “presence in infiltrating T cells of inflamed skin” value [5] was “found in all CD3[+] T cells in the tissue” and the “penetration into human skin” value [6] was “penetrated human epidermis and dermis”.

Reference: patent publication US6669951B2, “Compositions and methods for enhancing drug delivery across and into epithelial tissues” (CellGate, Inc., priority 1999, dated 2003)
